test: Waters ACQUITY UPLC BEH C18, 100 × 2.1 mm, 1.7 µm, 40 °C, 0.3 to 0.4 mL/min, estimated dead time 0.63 min; A: water + 0.1% formic acid; B: methanol + 0.1% formic acid; gradient (min/%B) 0/0.5 0.1/0.5 10/80 10.1/99.5 12/99.5; settings: stereoisomer not certain

SMILES	LC retention time [min]
COc1cc(C(C)=O)cc(OC)c1O	4.31
CC(C)CC1NC(=O)C2CCCN2C1=O (stereo not drawn)	4.03
CCC=CCC=CCC=CCCCCCCCC(=O)OCC(O)COP(=O)([O-])OCC[N+](C)(C)C (stereo not drawn)	8.93
CCC1CN2CCC3(C(=O)Nc4ccccc43)C2CC1C(=COC)C(=O)OC (stereo not drawn)	4.9
Nc1[nH]c(=O)[nH]c(=O)c1OC1OC(CO)C(O)C(O)C1O (stereo not drawn)	2.01
C=CC12CN(C)C3CC14C(=Nc1ccccc14)C1CC2C3CO1 (stereo not drawn)	3.58
Cc1c2ccncc2c(C)c2c1[nH]c1ccccc12	4.93
CC=CSSC=CC	6.41
O=C1CC(c2ccccc2O)Oc2ccccc21 (stereo not drawn)	7.45
c1ccc2c3ccn4cc5c(cc4c-3nc2c1)CCCC5	5.23
COc1cc2ccc(=O)oc2cc1OC	5
CC(C)C(O)(C(=O)OCC1CCN2CCCC12)C(C)O (stereo not drawn)	3.05
O=c1ccn(C2OC(CO)C(O)C2O)c(=O)[nH]1 (stereo not drawn)	1.8
CN(C)Cc1c[nH]c2ccccc12	3.06
CC(C)CC(NC(=O)CN)C(=O)O (stereo not drawn)	2.5
CC(C)C(NC(=O)C(N)Cc1ccccc1)C(=O)O (stereo not drawn)	2.98
COc1ccc2c3c([nH]c2c1)C1CC2C(=CCO)CN1C1C3OCC21 (stereo not drawn)	3.6
Oc1ccc(CCc2cc(O)cc(O)c2)cc1	5.15
O=C(O)C(Cc1ccccc1)NC(=O)C1CCCN1 (stereo not drawn)	2.99
CCC=CCC=CC=CC(CCCCCCCC(=O)O)OO (stereo not drawn)	6.77
COc1cc(C=CC(=O)O)cc(OC)c1O	4.21
OCCc1c[nH]c2ccccc12	3.06
CCCCCC=CCC(O)C(O)CCCCCCCC(=O)O (stereo not drawn)	8.54
CC=C1CN2C3CC1C(CO)C2Cc1c3[nH]c2ccccc12 (stereo not drawn)	3.58

SMILES	LC retention time [min]
CC1=NCCc2c1[nH]c1cc(O)ccc21	3.06
COc1cc(C(=O)OC2CC3CCC(C2)N3)ccc1O (stereo not drawn)	3.27
CC(CCC1(O)OC2CC3C4CCC5CC(OC6OC(CO)C(OC7OC(CO)C(O)C(O)C7OC7OC(CO)C(O)C(O)C7O)C(O)C6O)CCC5(C)C4CCC3(C)C2C1C)COC1OC(CO)C(O)C(O)C1O (stereo not drawn)	4.91
C=CCC(=NOS(=O)(=O)O)SC1OC(CO)C(O)C(O)C1O (stereo not drawn)	1.77
CCC(C)C(N)C(=O)NC(C(=O)O)C(C)CC (stereo not drawn)	3.05
CCCCCCCC(O)SCC(NC(=O)CCC(N)C(=O)O)C(=O)NCC(=O)O (stereo not drawn)	4.58
CC(C)=CCc1cc(CCc2cc(O)c(CC=C(C)C)c(O)c2)ccc1O	9.01
CCC1CN2CCC3(O)C(=Nc4cccc(OC)c43)C2CC1C(=COC)C(=O)OC (stereo not drawn)	4.26
CC=CS(=O)CC(NC(=O)CCC(N)C(=O)O)C(=O)O (stereo not drawn)	1.79
OCC=Cc1ccc(O)c(O)c1	3.18
COc1cc(C=CC(=O)NCCCCN=C(N)N)cc(OC)c1O	3.27
COc1cc(C=CC(=O)NCCCCN)ccc1O	2.7
CC=C1CN2C3CC1C1COC(c4c3[nH]c3cc(OC)ccc43)C12 (stereo not drawn)	4.42
CCCC1CCCCN1 (stereo not drawn)	2.78
COc1ccc(Cc2nccc3cc(OC)c(OC)cc23)cc1OC	4.49
C=CCNC(=O)C=Cc1ccc(O)c(OC)c1	2.86
CS(=O)CCCCCCCN (stereo not drawn)	2.08
Nc1ccc(C(=O)NC(CCC(=O)O)C(=O)O)cc1 (stereo not drawn)	3.22
NC(=O)CCC(NC(=O)CCCc1ccccc1)C(=O)O (stereo not drawn)	2.88
CCCCc1ccc(C(=O)O)nc1	2.79
O=C(O)CCC(NC(=O)Cc1c[nH]c2ccccc12)C(=O)O (stereo not drawn)	4.12
COc1ccc2c(c[n+](C)c3c4cc5c(cc4ccc23)OCO5)c1OC	5.3
O=C(O)C=Cc1ccccc1	5.42

More lines, now with the values ahead:

LC retention time [min]	SMILES
5.14	CC(=O)OCC1OC(Oc2cc(O)c3c(=O)cc(-c4ccc(O)cc4)oc3c2)C(O)C(O)C1O (stereo not drawn)
5.37	O=c1c(O)c(-c2ccc(O)c(O)c2)oc2cc(O)cc(O)c12
4.96	COc1cc(C2Oc3c(O)cc(C4Oc5cc(O)cc(O)c5C(=O)C4O)cc3C2CO)ccc1O (stereo not drawn)
4.21	COc1cc(-c2cc(=O)c3c(O)c(C4OC(CO)C(O)C(O)C4O)c(OC)cc3o2)ccc1O (stereo not drawn)
5.79	CC1OC(OC2C(O)COC(OC3C(C)OC(OC4C(OC(=O)C56CCC(C)(C)CC5C5=CCC7C8(C)CCC(OC9OC(CO)C(O)C(O)C9O)C(C)(CO)C8CCC7(C)C5(C)CC6O)OCC(O)C4O)C(O)C3O)C2O)C(O)C(O)C1O (stereo not drawn)
6.97	CC1(C)CC(O)C2(C)CCC3(C)C(=CCC4C5(C)CCC(OC6OC(C(=O)O)C(O)C(O)C6OC6OC(CO)C(O)C(O)C6OC6OC(CO)C(O)C(O)C6O)C(C)(CO)C5CCC43C)C2C1 (stereo not drawn)
8.93	CC(C)=CCc1c(O)ccc2c1OC(c1ccc(O)cc1)CC2=O (stereo not drawn)
3.96	COc1cc(-c2cc(=O)c3c(O)cc(OC4OC(C(=O)O)C(O)C(O)C4OC4OC(C(=O)O)C(O)C(O)C4O)cc3o2)cc(OC)c1O (stereo not drawn)
4.01	O=C(O)C1OC(Oc2c(-c3ccc(O)c(O)c3)oc3cc(O)cc(O)c3c2=O)C(O)C(O)C1O (stereo not drawn)
7.49	COc1c(C=CC(=O)c2ccc(O)c(O)c2)ccc(O)c1CC=C(C)C
5.27	C=CC1C(OC2OC(CO)C(O)C(O)C2O)OC=C2C(=O)N3Cc4cc5ccccc5nc4C3CC21 (stereo not drawn)
7.57	C=C(CCC=C(C)C)C1CCC2(C)C1C(O)CC1C3(C)CCC(O)C(C)(C)C3C(OC3OC(CO)C(O)C(O)C3OC3OC(C)C(O)C(O)C3O)CC12C (stereo not drawn)
7.06	CC1OC(OC2C(OC3C(OC4CCC5(C)C(CCC6(C)C5CC=C5C7CC(C)(C)CC(O)C7(C)CCC56C)C4(C)CO)OC(C(=O)O)C(O)C3O)OC(C(=O)O)C(O)C2O)C(O)C(O)C1O (stereo not drawn)
2.65	OCC1OC(Oc2cc3c(O)cc(O)cc3[o+]c2-c2cc(O)c(O)c(O)c2)C(OC2OCC(O)C(O)C2O)C(O)C1O (stereo not drawn)
5.92	COc1ccc2c(c1)OC1c3ccc(O)cc3OCC21 (stereo not drawn)
4.5	CC(O)(CC(=O)O)CC(=O)OCC1OC(Oc2c(-c3ccc(O)cc3)oc3cc(O)cc(O)c3c2=O)C(O)C(O)C1O (stereo not drawn)
4.22	O=C(O)CC(=O)OCC1OC(Oc2c(-c3ccc(O)c(O)c3)oc3cc(O)cc(O)c3c2=O)C(O)C(O)C1O (stereo not drawn)
5.4	CCC(O)(C(=O)O)c1cc2n(c(=O)c1COC(C)=O)Cc1cc3ccccc3nc1-2 (stereo not drawn)

LC retention time [min]	SMILES
4.52	CC1CCC2C(C)C3C(CC4C5C(=O)C=C6CC(OC7OC(CO)C(OC8OC(C)C(O)C(O)C8O)C(O)C7OC7OC(C)C(O)C(O)C7O)CCC6(C)C5CCC43C)N2C1 (stereo not drawn)
3.46	O=C(OC1Cc2c(O)cc(O)cc2OC1c1cc(O)c(O)c(O)c1)c1cc(O)c(O)c(O)c1 (stereo not drawn)
4.51	COc1ccc(C2CC(=O)c3c(O)cc(OC4OC(COC5OC(C)C(O)C(O)C5O)C(O)C(O)C4O)cc3O2)cc1O (stereo not drawn)
4.59	O=C(O)CC(=O)OCC1OC(Oc2cc(O)c3c(=O)cc(-c4ccc(O)c(O)c4)oc3c2)C(O)C(O)C1O (stereo not drawn)
5.68	CC1OC(OC2C(OC3C(OC4CCC5(C)C(CCC6(C)C5CC=C5C7CC(C)(C)C(OC8OC(C)C(O)C(O)C8O)CC7(C)CCC56C)C4(C)CO)OC(C(=O)O)C(O)C3O)OC(C(=O)O)C(O)C2O)C(O)C(O)C1O (stereo not drawn)
3.01	Oc1cc(O)c2cc(OC3OCC(O)C(O)C3O)c(-c3ccc(O)c(O)c3)[o+]c2c1 (stereo not drawn)
7.44	CC1(C)CC(O)C2(C)CCC3(C)C(=CCC4C5(C)CCC(OC6OC(C(=O)O)C(O)C(O)C6OC6OCC(O)C(O)C6O)C(C)(CO)C5CCC43C)C2C1 (stereo not drawn)
3.09	CC1OC(Oc2cc(O)c3c(=O)c(OC4OC(CO)C(O)C(O)C4OC4OC(C)C(O)C(O)C4O)c(-c4ccc(O)c(O)c4)oc3c2)C(O)C(O)C1O (stereo not drawn)
6.75	COc1cccc(-c2oc3cc(OC)ccc3c(=O)c2O)c1
4.01	COc1cc(C=CC(=O)OC2C(OC3C(Oc4c(-c5ccc(O)cc5)oc5cc(OC6OC(CO)C(OC7OC(CO)C(O)C(O)C7O)C(O)C6O)cc(O)c5c4=O)OC(CO)C(O)C3O)OC(CO)C(O)C2O)ccc1O (stereo not drawn)
3.98	CC1OC(OC2C(O)C(C)OC(OCC3OC(Oc4c(-c5ccc(O)cc5)oc5cc(O)cc(O)c5c4=O)C(O)C(O)C3O)C2O)C(O)C(O)C1O (stereo not drawn)
8.02	COc1ccc(-c2coc3cc(O)c(CC=C(C)C)c(O)c3c2=O)cc1
4.29	CC(=O)OC1C(C)CNC2C(C)C3C(CC4C5CCC6CC(OC7OC(CO)C(OC8OC(CO)C(O)C(OC9OCC(O)C(O)C9O)C8OC8OC(CO)C(O)C(O)C8O)C(O)C7O)CCC6(C)C5CCC43C)OC21O (stereo not drawn)
3.59	Oc1cc(O)c2ccc(-c3ccc(O)c(O)c3)[o+]c2c1
3.34	CC(O)(CC(=O)O)CC(=O)OCC1OC(Oc2c(-c3ccc(O)cc3)oc3cc(OC4OC(CO)C(O)C(O)C4O)cc(O)c3c2=O)C(O)C(O)C1O (stereo not drawn)
4.05	COc1cc(-c2cc(=O)c3c(O)cc(OC4OC(C(=O)O)C(O)C(O)C4OC4OC(C(=O)O)C(O)C(O)C4O)cc3o2)ccc1O (stereo not drawn)
6.01	CC(C)=CCCC(C)(OC1OC(COC2OC(CO)C(O)C2O)C(O)C(O)C1O)C1CCC2(C)C1C(O)CC1C3(C)CCC(OC4OC(CO)C(O)C(O)C4OC4OC(CO)C(O)C(O)C4O)C(C)(C)C3CCC12C (stereo not drawn)
6.12	CC1OC(OC2C(O)COC(OC3C(C)OC(OC4C(OC(=O)C56CCC(C)(C)CC5C5=CCC7C8(C)CCC(OC9OC(CO)C(O)C(O)C9O)C(C)(C)C8CCC7(C)C5(C)CC6O)OCC(O)C4O)C(O)C3O)C2O)C(O)C(O)C1O (stereo not drawn)
